We go through five compounds from US11040966B2, “Benzimidazole-proline derivatives” (IDORSIA PHARMACEUTICALS LTD, priority 2012, dated 2021).

In one data set the test system is rodents. The following applies: cited from earlier work.
The nature of data set [1]: Measurement of brain and systemic concentration after oral administration. Type of data set: in vivo. The conditions noted are these: rat, male wistar rats, 3 h after oral administration (100 mg/kg), n=3. On the procedure:
Measurement of Brain and Systemic Concentration after Oral Administration:
In order to assess brain penetration, the concentration of the compound is measured in plasma ([P]), and brain ([B]), sampled 3 h (or at different time points) following oral administration (e.g. 100 mg/kg) to male wistar rats. The compounds are formulated e.g. in 100% PEG 400. Samples are collected in the same animal at the same time point (+/−5 min). Blood is sampled from the vena cava caudalis into containers with EDTA as anticoagulant and centrifuged to yield plasma. Brain is sampled after cardiac perfusion of 10 mL NaCl 0.9% and homogenized into one volume of cold phosphate buffer (pH 7.4). All samples are extracted with MeOH and analyzed by LC-MS/MS. Concentrations are determined with the help of calibration curves.

A further data set concerns rat. The following applies: cited from earlier work.
Data set [2] concerns amyloid precursor protein transgenic mice. The conditions noted are these: after acute sleep restriction; cited from earlier work.
The subject of a further data set is mouse. The following applies: administered chronically; cited from earlier work.
In a further data set the test system is rats. The conditions noted are these: rats treated with the compound; cited from earlier work.
In a further data set the test system is humans. The following applies: indication primary insomnia; cited from earlier work.
The mark [3] stands for this setting: brain, read-out: concentration of the compound in brain ([B]).
[4] abbreviates: plasma, read-out: concentration of the compound in plasma ([P]).

Where two headings read alike, the source gives them in different places.

As for `Cn1c(SCC(=O)N2CCC[C@H]2C(=O)Nc2ccccc2-c2ccccc2)nc2ccccc21` [N-biphenyl-2-yl-1-{[(1-methyl-1H-benzimidazol-2-yl)sulfanyl]acetyl}-L-prolinamide], in the data set with rodents, the “behavioral (locomotor sensitization) and molecular (transcriptional responses) changes induced by repeated amphetamine administration” value is listed as “reduced”.
Turning to `Cc1ccc(-n2nccn2)c(C(=O)N2CCC[C@@]2(C)c2nc3cc(Br)cc(C)c3[nH]2)c1` [Example 5.19, [(S)-2-(5-Bromo-7-methyl-1H-benzoimidazol-2-yl)-2-methyl-pyrrolidin-1-yl]-(5-methyl-2-[1,2,3]triazol-2-yl-phenyl)-methanone], the concentration at 3 h in data set [1] (setting [3]) was 3880 ng/g; in data set [1] (setting [4]), 2100 ng/mL.
The corresponding values for `Cc1ccc(-c2ncccn2)c(C(=O)N2CCC[C@@]2(C)c2nc3cc(Br)cc(C)c3[nH]2)c1` [Example 5.277, [(S)-2-(5-Bromo-7-methyl-1H-benzoimidazol-2-yl)-2-methyl-pyrrolidin-1-yl]-(5-methyl-2-pyrimidin-2-yl-phenyl)-methanone] are 5880 ng/g and 3560 ng/mL.
Consider `CNC(=O)[C@@H](c1ccccc1)N1CCc2cc(OC)c(OC)cc2[C@@H]1CCc1ccc(C(F)(F)F)cc1` [(2R)-2-{(1S)-6,7-dimethoxy-1-[2-(4-trifluoromethyl-phenyl)-ethyl]-3,4-dihydro-1H-isoquinolin-2-yl}-N-methyl-2-phenyl-acetamide], for which the “activity in nicotine self-administration model” value with rat is listed as “displayed pharmacological activity”. Moreover, in data set [2], the “brain levels of amyloid-beta (Aβ) and Aβ plaque deposition” value was “decreased”. The “activity in mouse model of depression” value with mouse is listed as “antidepressant-like activity”. The “declarative and non-declarative learning and memory” value in the data set with rats is reported as “intact”. Also, the clinical efficacy entry with humans is given as “showed clinical efficacy”.
`COc1ccc(-n2nccn2)c(C(=O)N2CCC[C@@]2(C)c2nc3c(C)c(Cl)ccc3[nH]2)c1` [Example 5.36, [(S)-2-(5-Chloro-4-methyl-1H-benzoimidazol-2-yl)-2-methyl-pyrrolidin-1-yl]-(5-methoxy-2-[1,2,3]triazol-2-yl-phenyl)-methanone]: the concentration at 3 h in data set [1] (setting [3]) is 1810 ng/g; in data set [1] (setting [4]), 1280 ng/mL.
